Assay results from patent publication US4312605A, “Method for grouting joints and/or cracks in sewer conduits” (Hayward Baker Company, priority 1980, dated 1982).

What was measured:
albino rats [1] = conditions: cited from earlier work
[2] = cited from earlier work
albino rats [3] = assay: Acute toxicity (LD50) of grout monomers; type: in vivo; conditions: from LD50 of MBA vs acrylamide
[4] = Precipitation of crosslinker from aqueous monomer solution; type: physicochemical; conditions: based on total metal acrylate salt; aqueous monomer solution 20-40% solids, especially if shaken
[5] = Gel time of grout mixtures after mixing components A and B; type: physicochemical; conditions: used instead of MgA in the monomer composition
Protocol: To 50 parts of each of the stock solutions a, b, c, d, and e, there is added 1.0 part of TEA (95% in water) and to another 50 parts of each of the stock solutions, there is added 2.0 parts of TEA (95% in water). The resulting ten solutions containing TEA, the latter five having twice as much TEA as the first five, are examples of component A that can be mixed with an approximately equal volume of initiator component B which in its simplest make-up consists of a solution in water of ammonium persulfate (AP).
The component B that is used with each of the first five of the TEA/monomer component A solutions is a solution of 2% AP in water, approximately 50 parts of the 2% AP solution being mixed, as at the discharge header of a packer, with 50 parts of the respective component A solution. These first five A and B mixtures when used in the field at about 20° (68° F.) have gel times of about 30 seconds. The component B made up for use with the last group of five TEA/monomer components A is a solution of 4% AP in water. When the latter AP solution is forced at approximately a rate of 50 parts for each 50 parts of a respective one of the last five TEA/monomer component A solutions through separate feed lines to the packer at field temperatures of about 10° (50° F.), the grout mixtures A and B give approximately 30-second gel times.

[6] = 4 to 25% calcium acrylate based on dry soil weight, redox catalyst; U.S. Pat. No. 2,651,619; cited from earlier work

C=CC(=O)NCNC(=O)C=C [MBA, N,N'-methylenebisacrylamide]
LD50 (albino rats [1]): 390 mg/kg | neurotoxicity ([2]; at dose schedules and conditions employed (MRI Project No. 4308-N, page 287)): not neurotoxic | monomer toxicity (factor relative to acrylamide) (albino rats [3]): 1/2 | amount of crosslinker above which it tends to precipitate [4]: about 4 % by weight

C=CC(N)=O [acrylamide]
neurotoxicity (general statement) ([2]; in vivo): a neurotoxic chemical

C=CC(=O)O [calcium acrylate (CaA), calcium acrylate]
gel time (in words) [5]: long gel time | compressive strength of stabilized soil [6]: up to 600 psi
